Assay results reported in patent US5872104A, “Combinations and methods for reducing antimicrobial resistance” (Oridigm Corporation, priority 1994, dated 1999).
Values after ≈ are worked out from the molar mass of the structure shown. Where a name gives a salt, the structure may show the parent alone. Read-outs that look alike come from different tables or passages of the source.

How the values were obtained:
[1] = tested on: Dictyostelium discoideum; settings: 5 mM, four hours; cited from earlier work
[2] = tested on: SAM synthetase; settings: cited from earlier work
[3] = tested on: 28S rRNA, 18S rRNA and tRNA; settings: NPA 10 μM; c^3 -NPA 10 μM; c^3 -Ari 100 μM; cited from earlier work
[4] = tested on: SAHH hydrolase; settings: cited from earlier work
[5] = tested on: bovine liver SAHH; settings: 0.2 mM; cited from earlier work
[6] = tested on: Legionella pneumophila; settings: in µg/mL; cited from earlier work
[7] = tested on: Haemophilus influenzae; settings: in µg/mL; cited from earlier work
[8] = tested on: Listeria monocytogenes; settings: in µg/mL; cited from earlier work
[9] = tested on: Neisseria gonorrhoeae; settings: in µg/mL; cited from earlier work
[10] = tested on: Bordetella pertussis; settings: in µg/mL; cited from earlier work
[11] = tested on: Campylobacter species; settings: in µg/mL; cited from earlier work
[12] = tested on: E. faecalis (Erythromycin susceptible); settings: cited from earlier work
[13] = tested on: Staphylococcus aureus, methicillin resistant; settings: cited from earlier work
[14] = cited from earlier work
[15] = tested on: Mycoplasma pneumoniae; settings: in µg/mL; cited from earlier work
[16] = tested on: Streptococcus pneumoniae; settings: in µg/mL; cited from earlier work
[17] = tested on: Gram-positive cocci (peptococcus, peptostreptococcus); settings: anaerobes; cited from earlier work
[18] = tested on: Moraxella catarrhalis; settings: in µg/mL; cited from earlier work
[19] = tested on: Streptococcus pyogenes (group A), erythromycin susceptible; settings: cited from earlier work
[20] = tested on: Bacteroides fragilis; settings: anaerobes; in µg/mL; cited from earlier work
[21] = tested on: Clostridium perfringens; settings: anaerobes; in µg/mL; cited from earlier work
[22] = tested on: N. meningitidis; settings: in µg/mL; cited from earlier work
[23] = tested on: E. faecalis (Erythromycin resistant); settings: cited from earlier work
[24] = tested on: Viridans streptococci; settings: cited from earlier work
[25] = tested on: Chlamydia trachomatis; settings: in µg/mL; cited from earlier work
[26] = tested on: Streptococcus bovis; settings: cited from earlier work
[27] = tested on: Coagulase-negative staphylococci, methicillin resistant; settings: cited from earlier work
[28] = tested on: Pasteurella multocida; settings: cited from earlier work
[29] = tested on: Staphylococcus aureus, methicillin susceptible; settings: in µg/mL; cited from earlier work
[30] = target: ornithine decarboxylase (ODC); settings: cited from earlier work
[31] = tested on: adenosine deaminase; settings: cited from earlier work
[32] = tested on: lysosomal ADA; settings: 0.2 mM; cited from earlier work
[33] = tested on: Trypanosomiasis; settings: cited from earlier work
[34] = tested on: E. coli glutathione synthetase; settings: cited from earlier work
[35] = tested on: glutathione; settings: ip.; 4.5 mmol/kg buthionine sulfoximine and […] diethyl maleate; cited from earlier work
[36] = tested on: S. aureus 27660 (erythromycin resistant); assay type: cell-based; settings: inhibitor pre-mixed with BHIA or TSA, with erythromycin (FIG. 3)
[37] = tested on: S. aureus 27660 (erythromycin resistant); test: Erythromycin disc susceptibility after pre-incubation with inhibitor discs (second procedure); settings: 310 μg/disc, pre-incubation 0-5 hours, 18 hours incubation (FIG. 4)
[38] = tested on: S. aureus 6538 (erythromycin susceptible); test: Erythromycin disk susceptibility with inhibitor pre-mixed in agar; assay type: cell-based; settings: inhibitor pre-mixed with BHIA or TSA, with erythromycin (FIG. 2)
[39] = tested on: S-Adenosylmethionine Decarboxylase (SAM-DC); settings: cited from earlier work
[40] = tested on: SAH in hepatocytes; settings: cited from earlier work
[41] = tested on: rRNA of S. cerevisiae; settings: cited from earlier work
[42] = tested on: mature rRNA in Novikoff hepatoma cells; settings: cited from earlier work
[43] = tested on: RNA methylation; settings: cited from earlier work
[44] = tested on: methylation reactions in peripheral blood monocytes; settings: cited from earlier work
[45] = tested on: arginine decarboxylase; settings: cited from earlier work
[46] = tested on: tRNA methylases isolated from E. coli; settings: cited from earlier work
[47] = tested on: tRNA methylases; settings: cited from earlier work
[48] = tested on: Mycoplasma pneumoniae; settings: cited from earlier work
[49] = tested on: Staphylococcus aureus; settings: cited from earlier work
[50] = tested on: Ureaplasma urealyticum; settings: cited from earlier work
[51] = tested on: Mycoplasma hominis; settings: cited from earlier work

NCC(O)CN [1,3-diaminopropan-2-ol]
growth of D. discoideum [1]: arrested in four hours

Nc1ncnc2c1ncn2[C@@H]1O[C@H](COP(=O)(O)NP(=O)(O)OP(=O)(O)O)[C@@H](O)[C@H]1O [AMPNPP]
effectiveness, fold versus AMPCPP [2]: about 1000 fold | inhibition constant, fold less than the Km of ATP [2]: 60 fold | substrate and inhibitor of SAM synthetase [2]: both a substrate for SAM synthetase and a potent inhibitor

Nc1nccc2c1ncn2[C@@H]1C[C@H](CO)[C@@H](O)[C@H]1O [c^3 -Ari, 3-deazaaristeromycin]
methylation of 28S rRNA, 18S rRNA and tRNA [3]: inhibit the methylation of 28S rRNA, 18S rRNA and tRNA | antiviral activity and cytotoxicity vs first generation [4]: retained antiviral activity and considerably lower cytotoxicity than their parent first generation inhibitors | inhibition [5]: 97%

CC[C@H]1OC(=O)[C@H](C)[C@@H](O[C@H]2C[C@@](C)(OC)[C@@H](O)[C@H](C)O2)[C@H](C)[C@@H](O[C@@H]2O[C@H](C)C[C@H](N(C)C)[C@H]2O)[C@](C)(O)C[C@@H](C)CN(C)[C@H](C)[C@@H](O)[C@]1(C)O [Azithromycin]
MIC90 [6]: 0.25-2.0 | MIC90 [7]: 1.0 | MIC90 [8]: 4.0 | MIC90 [9]: 0.15 | MIC90 [10]: 0.12 | MIC90 [11]: 0.25 | MIC90 [12]: 8 µg/mL (≈ 10.7 µM) | MIC90 [13]: > 128 µg/mL | tissue half-life [14]: prolonged tissue half-life | MIC90 [15]: 0.001 | MIC90 [16]: 0.12 | MIC90 [17]: 2 µg/mL (≈ 2.67 µM) | MIC90 [18]: 0.5 | MIC90 [19]: 0.12 µg/mL (≈ 0.16 µM) | MIC90 [20]: 8.0 | MIC90 [21]: 1.0 | MIC90 [22]: 0.12 | MIC90 [23]: > 64 µg/mL | MIC90 [24]: 16 µg/mL (≈ 21.4 µM) | MIC90 [25]: 0.12-0.25 | MIC90 [26]: 0.25 µg/mL (≈ 0.334 µM) | MIC90 [27]: > 128 µg/mL | MIC90 [28]: 0.5 µg/mL (≈ 0.668 µM) | MIC90 [29]: 1.0

COC(=O)C(N)(C=CCN)CF (racemic) [DL-α-monofluoromethyldehydroornithine methylester]
Ki [30]: 3000 nM

CCCCCC[C@H]([C@H](C)O)n1cnc2c(N)ncnc21 (relative stereo) [erythro-9-(2-hydroxy-3-nonyl)adenine]
ADA inhibition [31]: inhibitors of ADA | inhibition of lysosomal ADA [32]: > 97%

NCCCC(N)(C(=O)O)C(F)F (stereo not drawn) [DFMO, difluoromethylornithine]
clinical effectiveness ([33]; different dosage levels and modes of treatment): effective against Trypanosomiasis | safety ([33]; human, in vivo): safe and well tolerated and the side effects are reversible | ODC inhibition [30]: irreversible inhibitor of ornithine decarboxylase

COc1cc(Cc2cnc(N)nc2N)cc(OC)c1OC [trimethoprim]
inhibition [34]: potently inhibited

CCOC(=O)/C=C\C(=O)OCC [diethyl maleate]
depletion of glutathione [35]: depleted liver and aortic glutathione

CCSCC[C@H](N)C(=O)O [Ethionine]
increase in the size of the clear zone [36]: increase in the size of the clear zone | increase in clear zones relative to erythromycin alone [37]: Increases in clear zones were observed | increase in the size of the clear zone [38]: increase in the size of the clear zone

CN(C/C=C\CN)C[C@H]1O[C@@H](n2cnc3c(N)ncnc32)[C@H](O)[C@@H]1O [AbeAdo, 5'-{[(Z)-4-amino-2-butenyl]methylamino}-5'-deoxyadenosine]
SAM-DC inhibition [39]: powerful irreversible inhibitors of SAM-DC

Nc1ncnc2c1ncn2C[C@H](O)[C@H](O)C(=O)O [L-eritadenine]
inactivation of SAH [40]: inactivate SAH in hepatocytes

CN(CCCNN)C[C@H]1O[C@@H](n2cnc3c(N)ncnc32)[C@H](O)[C@@H]1O [MHZPA, 5'-deoxy-5'-[(3-hydrazinopropyl)methylamino]adenosine]
SAM-DC inhibition [39]: powerful irreversible inhibitors of SAM-DC

C[C@](N)(CCCN)C(=O)O [α-methylornithine]
growth of D. discoideum [1]: arrested in four hours

Nc1ncnc2c1ncn2C[C@@H](O)[C@@H](O)C(=O)O [D-eritadine]
inactivation of SAH [40]: inactivate SAH in hepatocytes

N#Cc1cn([C@@H]2O[C@H](CO)[C@@H](O)[C@H]2O)c2ncnc(N)c12 [toyocamycin]
maturation of rRNA [41]: inhibit the maturation of rRNA | formation of mature rRNA [42]: inhibit the formation of mature 28S and 18

Nc1ncnc2c1ncn2[C@@H]1O[C@H](CO)[C@H](O)[C@H]1O [xylosyladenine, 9-B-D-xylofuranosyladenine]
DNA methylation [43]: not inhibited | formation of methyluridine, 2'-O-methylcytidine, 5-methyluridine and 5-methylcytidine in RNA [43]: reduced | inhibition of RNA methylation [43]: marked inhibition of RNA methylation

Nc1nc2c(ncn2[C@@H]2O[C@H](CO)[C@@H](O)[C@H]2O)c(=S)[nH]1 [6-thioguanosine]
formation of mature rRNA [42]: inhibit the formation of mature 28S and 18

Nc1ncnc2c1ncn2C[C@H](O)[C@@H](O)C(=O)O [L-threo-eritadenine]
inactivation of SAH [40]: inactivate SAH in hepatocytes

CNc1ncnc2c1ncn2[C@@H]1C[C@H](CO)[C@@H](O)[C@H]1O [N^6 -methylaristeromycin]
inhibition [5]: 22%

CN(Cc1cnc2nc(N)nc(N)c2n1)c1ccc(C(=O)N[C@@H](CCC(=O)O)C(=O)O)cc1 [Methotrexate]
SAH metabolism ([44]; cultured cells and patients): affects SAH metabolism | methylation reactions ([44]; low concentrations, in vitro): interfere with specific methylation reactions | inhibition [34]: potently inhibited

N=C(N)NCCCC(N)(C(=O)O)C(F)F (racemic) [DFMA, difluoromethylarginine]
arginine decarboxylase inhibition [45]: irreversible inhibitor of ADC | arginine decarboxylase inhibition ([45]; listed as DL-α-(difluoromethyl)arginine): potent and irreversible inhibitor of bacterial ADC

Nc1ncnc2c1nnn2[C@@H]1C[C@H](CO)[C@@H](O)[C@H]1O [8-azaaristeromycin]
inhibition [5]: 46%

Nc1ncnc2nc[nH]c12 [adenine]
inhibition of E. coli tRNA methylases [46]: inhibitory to tRNA methylases isolated from E. coli | inhibition of tRNA methylases [47]: gave inhibition that would be acceptable

CCC[C@@H]1C[C@@H](C(=O)N[C@@H]([C@H]2O[C@H](SC)[C@H](O)[C@@H](O)[C@H]2O)[C@@H](C)O)N(C)C1 [Lincomycin]
MIC50 [48]: 8 µg/mL (≈ 19.7 µM) | MIC90 [48]: 32 µg/mL (≈ 78.7 µM) | Range [48]: 2-32 | MIC50 [49]: 1 µg/mL (≈ 2.46 µM) | MIC90 [49]: 1 µg/mL (≈ 2.46 µM) | Range [49]: 0.5-512 | MIC50 [50]: ≥ 128 µg/mL | MIC90 [50]: ≥ 128 µg/mL | MIC50 [51]: 2 µg/mL (≈ 4.92 µM) | MIC90 [51]: 4 µg/mL (≈ 9.84 µM) | Range [51]: 0.5-16

Nc1ncnc2c1ncn2[C@@H]1O[C@H](CO)[C@@H](O)[C@H]1O [adenosine]
inhibition of E. coli tRNA methylases [46]: inhibitory to tRNA methylases isolated from E. coli
